Laboratory results from US20100305315A1, “Process for the preparation of 2-(primary/secondary amino)hydrocarbyl)-carbamoyl-7-oxo-2,6-diaza-bicyclo [3.2.0.]heptane-6-sulfonic acid derivatives” (Basilea Pharmaceutica AG, priority 2007, published 2010).

Assay: physchem
Details: 25 °C, organic solvent or mixture

O=C1[C@H]2NCC[C@H]2N1S(=O)(=O)O [(1S,5R)-7-oxo-2,6-diaza-bicyclo[3.2.0]heptane-6-sulfonic acid]
solubility: ≤ 200 mg/mL
